Assay results taken from patent US20230321025A1, “METHOD AND COMPOUND FOR THE TREATMENT AND ELIMINATION OF AN IMMUNODEFICIENCY CONDITION” (priority 2020, published 2023).
In brackets after ≈: the same amount, converted by molar mass. Several values for one entry are separate records, joined by “and”; a condition that tells them apart may be missing. Equal entries are not always repeated. Where two headings read alike, the source gives them in different places.

Legend:
[1] = test system: CEM-SS T-lymphoblastoid cells; assay: Drug-induced cytotoxicity in CEM-SS cells (tetrazolium reduction); conditions: for Toxicity testing, mean optical density: human, 6 days
Source text: This assay was used to test the effectiveness of anti-HIV drug monotherapy in the established T-cell line CEM-SS infected with HIV-1RF, HIV-1IIIb, HIV-2ROD, or other cytolytic variants of HIV.
The drugs were solubilized in DMSO (dimethyl sulfoxide). […] CEM-SS cells were in logarithmic growth phase at the time of experimentation. Virus (HIV-1RF) stocks that past the necessary quality controls (killing effect on the type of cells used, limited variability, etc) were thawed and maintained on ice until required for addition.
Half-log serial dilutions of the antiviral agent or compound of the invention, H2K1001 (90i), were made in tissue culture media (RPMI 1640 without phenol red, supplemented with 10% heat inactivated fetal bovine serum, 1% L-Glutamine, 1% Pen/Strep and 50 ug/ml gentimycin). Virus, cell, drug and diluent (ethanol) controls were included for these tests. Virus was added after cells and drugs were mixed. Cell, drug, and virus containing cultures were incubated for six (6) days without additional feeding at which time the cultures were evaluated macroscopically and microscopically for cell toxicity, and the tetrazolium salt […] was added for quantitation by the colorimetric determination of formazan production (optical density).
Drug efficacy and cytotoxicity effects were determined six days after infection by the metabolic reduction of the tetrazolium salt XTT to its‘ formazan by surviving cells and was quantitated by determination of optical density at 450 nm with background subtraction at 650 nm (Tables 1-4).
The drug plate analysis reports from this assay are provided below in Tables 1-4. Calculated endpoints (EC50, etc.) were determined using Cho and Cho Median Effect Equation (Daids Virology Manual for HIV Laboratories, Compiled by The Division of Aids, National Institute of Allergy and Infectious Diseases, National Institutes of Health and Collaborating Investigators, Version January 1997).

[2] = test system: HIV-1 (P2); assay: Antiviral drug assay in PBMC (supernatant p24); type: cell-based; conditions: for p24 testing data, single readings: listed as H2K-1001 (900); for EC50: Human immunodeficiency virus 1, PBMC
Protocol: Drug efficacy was determined by the production of supernatant HIV-1 p24. Drug-induced cytotoxicity was determined by the metabolic reduction of tetrazolium salts (MTS; Promega).
The antiviral drug or agent of the invention, H2K-1001 (90i), was solubilized. PBMCs, stimulated with PHA (phytohemagglutinin) for three days were employed throughout. Virus stocks (U.S. Clinical isolates) grown in PBMCs only, that past the necessary quality controls (i.e., replicate to high titer in PBMCs and meet the requirements as to genotype and phenotype) were rapidly thawed and maintained on ice until required for infection.
Virus and cell controls were included on each test plate. Virus was added after cells and drugs were mixed. Cell, drug and virus containing cultures were incubated for seven (7) days with an interim feeding at day three or four.
Supernatants were sampled at seven days for p24 determination by antigen capture ELISA. Cytotoxicity was measured by the metabolic reduction of the tetrazolium salt according to the manufacturer’s (Promega) recommendations.
The drug analysis reports from these studies are provided below in Tables 7-10. Efficacy (EC50) and viability (IC50) determinations were made using Cho and Cho Median Effect Equation, as noted above. Efficacy is expressed as the 50% effective concentration (EC50) and drug induced toxicity as the 50% inhibitory concentration (IC50).

[3] = test system: chronically HIV-1 infected H9 cells; assay: Co-cultivation study with chronically HIV-1 infected H9 cells; type: cell-based
Source text: Viral pathogenesis in co-cultivation of infected cells with uninfected target cells presents a complex system with several target sites (attachment, fusion, transcription, processing, packaging and budding).
In many documented antiretroviral studies, the co-culture system is conventionally used to isolate the virus as well as to study cell-to-cell transmission or to determine if a given compound blocks cell fusion. H2K1001 and/or 90I may use aggressive intervention that could possibly be directed to at least one of a late phase, early fusion and/or attachment, and both early and late. However, judging from the variety of 90I results, early and late mode of action is consistent to this compound.

O=C(OCCOCCOC(=O)c1ccccc1)c1ccccc1 [90I, diethylene glycol dibenzoate]
Toxicity % CC ([1]; 0.01 ug/ml): 100 % CC
Toxicity % CC ([1]; 0.03 ug/ml): 103 % CC
Toxicity % CC ([1]; 0.1 ug/ml): 104 % CC
Toxicity % CC ([1]; 0.3 ug/ml): 100 % CC
Toxicity % CC ([1]; 1 ug/ml): 100 % CC
Toxicity % CC ([1]; 3 ug/ml): 99 % CC
Toxicity % CC ([1]; 10 ug/ml): 93 % CC
Toxicity % CC ([1]; 33 ug/ml): 94 % CC
Toxicity testing, optical density of single wells ([1]; 33 ug/ml, listed as H2K1001 (90I)): 2.3330
Toxicity % CC ([1]; 100 ug/ml): 106 % CC
50% inhibitory concentration, IC50 (drug induced toxicity) ([1]; CEM-SS, high test concentration 100 ug/ml): greater than 100 ug/ml
IC50 ([1]; Homo sapiens, CEM-SS): > 100 µg/mL
Toxicity testing, mean optical density ([1]; 0.01 ug/ml): 2.4317
Toxicity testing, mean optical density ([1]; 0.03 ug/ml): 2.4969
Toxicity testing, mean optical density ([1]; 0.1 ug/ml): 2.5149
Toxicity testing, mean optical density ([1]; 0.3 ug/ml): 2.4130
Toxicity testing, mean optical density ([1]; 1 ug/ml): 2.4177
Toxicity testing, mean optical density ([1]; 3 ug/ml): 2.4007
Toxicity testing, mean optical density ([1]; 33 ug/ml): 2.2879
Toxicity testing, mean optical density ([1]; 100 ug/ml): 2.5604
Efficacy % p24 Reduction ([2]; 0.01 ug/ml): 23%
p24 testing data, mean reading ([2]; 0.01 ug/ml): 2.2023
p24 testing data, single readings ([2]; 0.01 ug/ml): 2.100 and 2.2130 and 2.2937
Efficacy % p24 Reduction ([2]; 0.03 ug/ml): 25%
p24 testing data, mean reading ([2]; 0.03 ug/ml): 2.1373
p24 testing data, single readings ([2]; 0.03 ug/ml): 2.1210 and 1.9460 and 2.3450
Efficacy % p24 Reduction ([2]; 0.10 ug/ml): 36%
p24 testing data, mean reading ([2]; 0.10 ug/ml): 1.8337
p24 testing data, single readings ([2]; 0.10 ug/ml): 1.9461 and 1.8101 and 1.7450
Efficacy % p24 Reduction ([2]; 0.33 ug/ml): 36%
p24 testing data, mean reading ([2]; 0.33 ug/ml): 1.8344
p24 testing data, single readings ([2]; 0.33 ug/ml): 1.9451 and 1.7120 and 1.8460
Efficacy % p24 Reduction ([2]; 1 ug/ml): 53%
p24 testing data, mean reading ([2]; 1 ug/ml): 1.3316
p24 testing data, single readings ([2]; 1 ug/ml): 1.4266 and 1.4567 and 1.1116
p24 testing data, mean reading ([2]; 3 ug/ml): 0.3713
Efficacy % p24 Reduction ([2]; 3 ug/ml (3.2 in Table 11)): 87%
p24 testing data, single readings ([2]; 3 ug/ml): 0.4510 and 0.3219 and 0.3410
Efficacy % p24 Reduction ([2]; 10 ug/ml): 95%
p24 testing data, mean reading ([2]; 10 ug/ml): 0.1397
p24 testing data, single readings ([2]; 10 ug/ml): 0.1090 and 0.1220 and 0.1874
Efficacy % p24 Reduction ([2]; 32 ug/ml): 94%
p24 testing data, mean reading ([2]; 32 ug/ml): 0.1690
Efficacy % p24 Reduction ([2]; 100 ug/ml): 93%
p24 testing data, mean reading ([2]; 100 ug/ml): 0.1946
p24 testing data, single readings ([2]; 100 ug/ml): 0.1530 and 0.1820 and 0.2488
TI ([2]; HIV-1 P2 in PBMC): greater than 125
EC50 ([2]; HIV-1 P2 clinical isolate in PBMC, read-out: EC50): ~0.8 µg/mL (≈ 2.55 µM)
EC50 ([2]; PBMC, virus printed HIV-IRF, read-out: BC50 (the source's name)): 0.8 µg/mL (≈ 2.55 µM)
syncytium formation ([3]; co-cultivation): drastic drop
cell viability ([3]; co-cultivation, exponential cell growth): greater than ninety percent
viral burden (p24) after treatment ([3]; co-cultivation, from 1.7 ×10^6 pg of p24): 500 pg
progression of HIV-1 infection ([3]; compared to untreated controls): effectively blocked the progression of HIV-1 infection
